These are literature values, as cited in patent publication US20240293350A1, “DEVELOPMENT OF AN INNOVATIVE INHALATION FORMULATION OF NAFAMOSTAT MESYLATE FOR THE MANAGEMENT OF COVID-19” (EGE UNIVERSITESI, priority 2020, published 2024).

Where a name gives a salt, the structure may show the parent alone.

In data set [1] the test system is NL63 virus. To be noted: after infection with NL63 virus, gut-on-a-chip model; compared with Remdesivir.
Data set [2] relates to coronavirus. To be noted: primary human mucociliary airway epithelial cells.
In data set [3] the test system is SARS-COV-2. The note with it: administered after infection with SARS-COV-2; compared with Remdesivir.
The subject of data set [4] is SARS-COV-2. To be noted: Simian Vero E6 cells infected with SARS-COV-2, cell culture.

Take `N=C(N)c1ccc2cc(OC(=O)c3ccc(N=C(N)N)cc3)ccc2c1` [NM, nafamostat mesylate]: in data set [1], the effectiveness after infection result is recorded as “much more effective after infection with the NL63 virus than Remdesivir”. Moreover, the antiviral activity entry in data set [2] is “demonstrated antiviral activity”. Also, the viral load entry in data set [3] is reported as “decreased the viral load more than Remdesivir”. The “prevention of infection of cells” value in data set [4] was “prevent cells from being infected with the virus”.
